Activity calls are given as the source filed them. The calls are words filed in the database; no cut-off is given here.
How the values were obtained:
[1] = Toxicity in Cynomolgus monkey assessed as multifocal gliosis at 20 to 50 mg/kg/day, po administered for 14 days; type: organism-based, Macaca fascicularis; conditions: in vivo, 336 h, dose 20-50 mg/kg/day, time 14 day
[2] = target: Rho-associated protein kinase 1 (Homo sapiens) (UniProt Q13464); test: Inhibition of ROCK 1 (unknown origin) at 10 uM
Sequence of Rho-associated protein kinase 1 (Homo sapiens) (Q13464 2-1354 limits assumed): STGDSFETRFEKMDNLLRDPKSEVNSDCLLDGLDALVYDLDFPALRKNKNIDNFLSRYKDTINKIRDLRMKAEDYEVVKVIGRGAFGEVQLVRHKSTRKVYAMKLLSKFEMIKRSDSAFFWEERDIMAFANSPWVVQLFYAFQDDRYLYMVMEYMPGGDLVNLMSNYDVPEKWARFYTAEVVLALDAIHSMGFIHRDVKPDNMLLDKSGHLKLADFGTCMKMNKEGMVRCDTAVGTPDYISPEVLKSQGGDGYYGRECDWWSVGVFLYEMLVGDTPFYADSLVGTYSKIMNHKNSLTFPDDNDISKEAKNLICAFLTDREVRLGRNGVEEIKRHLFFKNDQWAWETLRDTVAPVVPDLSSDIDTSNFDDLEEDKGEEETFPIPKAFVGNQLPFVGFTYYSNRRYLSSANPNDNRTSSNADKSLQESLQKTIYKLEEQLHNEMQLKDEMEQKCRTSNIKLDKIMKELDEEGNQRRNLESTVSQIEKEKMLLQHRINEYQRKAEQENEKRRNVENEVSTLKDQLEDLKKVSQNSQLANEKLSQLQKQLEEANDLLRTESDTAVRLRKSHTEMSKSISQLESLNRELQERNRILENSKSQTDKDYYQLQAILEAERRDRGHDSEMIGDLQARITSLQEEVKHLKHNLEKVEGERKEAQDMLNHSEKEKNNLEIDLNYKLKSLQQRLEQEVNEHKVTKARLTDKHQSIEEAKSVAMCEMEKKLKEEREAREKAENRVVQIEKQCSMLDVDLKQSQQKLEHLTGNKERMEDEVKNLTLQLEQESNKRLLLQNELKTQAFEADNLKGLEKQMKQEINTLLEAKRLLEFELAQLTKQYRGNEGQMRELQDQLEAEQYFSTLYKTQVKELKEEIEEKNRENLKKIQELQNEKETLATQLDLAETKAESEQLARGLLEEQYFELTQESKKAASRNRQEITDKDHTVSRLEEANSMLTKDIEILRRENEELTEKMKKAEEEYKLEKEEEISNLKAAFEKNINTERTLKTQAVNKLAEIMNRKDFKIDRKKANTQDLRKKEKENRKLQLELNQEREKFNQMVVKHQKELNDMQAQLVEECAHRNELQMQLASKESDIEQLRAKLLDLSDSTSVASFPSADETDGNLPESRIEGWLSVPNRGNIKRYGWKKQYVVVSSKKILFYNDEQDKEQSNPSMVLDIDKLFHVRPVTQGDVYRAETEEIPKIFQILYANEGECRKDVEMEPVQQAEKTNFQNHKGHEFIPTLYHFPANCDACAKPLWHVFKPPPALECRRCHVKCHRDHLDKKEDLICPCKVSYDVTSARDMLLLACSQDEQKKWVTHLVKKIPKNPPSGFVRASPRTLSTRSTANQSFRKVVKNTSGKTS

[3] = Oral bioavailability in Beagle dog at 3 mg/kg upto 24 hrs by LC/MS/MS analysis; type: ADME, organism-based, Canis lupus familiaris; conditions: in vivo
[4] = Half life in Sprague-Dawley rat at 1 mg/kg, iv upto 48 hrs by LC/MS/MS analysis; type: ADME, organism-based; conditions: in vivo
[5] = Reduction in C26:0 LPC level in ABCD1 knock out mouse blood at 0.5 mg/kg, po qd for 105 days by LC-MS/MS analysis relative to control; type: functional; parameters: scale not given: the % may be the effect or the level left; conditions: time 105 day
[6] = Tmax in Sprague-Dawley rat at 3 mg/kg, po upto 24 hrs by LC/MS/MS analysis; type: ADME, organism-based; conditions: in vivo
[7] = Reduction in C26:0/C16:0 LPC level in ABCD1 knock out mouse CNS at 4 mg/kg, po qd measured after 6 months of dosing by LC-MS/MS analysis; type: functional; parameters: scale not given: the % may be the effect or the level left; conditions: 4380 h
[8] = Toxicity in Sprague-Dawley rat assessed as decrease in body weight at 5 to 50 mg/kg/day, po administered for 2 weeks; type: organism-based; conditions: in vivo, 336 h, dose 5-50 mg/kg/day
Mus musculus [9] = test: Reduction in C22:0/C16:0 LPC level in ABCD1 knock out mouse CNS at 1 to 10 mg/kg, po qd measured after 3 months of dosing by LC-MS/MS analysis; type: functional, organism-based; conditions: dose 1-10 mg/kg
Fibroblast = test: Reduction in C26:0 lysophosphatidyl choline synthesis in primary human AMN patient-derived fibroblast incubated for 48 hrs; type: functional, cell-based; conditions: DDE = dose-dependent effect
[10] = Reduction in C26:0/C16:0 LPC level in ABCD1 knock out mouse CNS at 20 mg/kg, po qd measured after 8 months of dosing by LC-MS/MS analysis; type: functional; parameters: scale not given: the % may be the effect or the level left; conditions: 5840 h
[11] = Toxicity in ABCD1 knock out mouse assessed as decrease in body weight at 8 to 32 mg/kg, po qd treated for 6 months; type: organism-based; conditions: in vivo, 4380 h, dose 8-32 mg/kg
[12] = target: T1, Very long chain fatty acid elongase 1 (Homo sapiens, UniProt Q9BW60); test: Inhibition of ELOVL1 (unknown origin) using C22-acyl-CoA as substrate by radiometric enzyme assay
T1 sequence (Q9BW60 whole entry): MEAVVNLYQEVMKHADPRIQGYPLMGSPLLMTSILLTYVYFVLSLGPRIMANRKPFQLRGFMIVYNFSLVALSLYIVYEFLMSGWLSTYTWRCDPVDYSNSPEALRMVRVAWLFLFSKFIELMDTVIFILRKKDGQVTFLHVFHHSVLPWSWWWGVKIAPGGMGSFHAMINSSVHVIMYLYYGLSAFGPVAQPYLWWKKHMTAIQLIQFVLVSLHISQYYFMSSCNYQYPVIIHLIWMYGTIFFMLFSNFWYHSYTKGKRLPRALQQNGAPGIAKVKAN

[13] = target: T2, Adenosine receptor A3 (Homo sapiens) (UniProt P0DMS8); test: Inhibition of Adenosine A3 Receptor (unknown origin) at 10 uM
T2 sequence (whole entry): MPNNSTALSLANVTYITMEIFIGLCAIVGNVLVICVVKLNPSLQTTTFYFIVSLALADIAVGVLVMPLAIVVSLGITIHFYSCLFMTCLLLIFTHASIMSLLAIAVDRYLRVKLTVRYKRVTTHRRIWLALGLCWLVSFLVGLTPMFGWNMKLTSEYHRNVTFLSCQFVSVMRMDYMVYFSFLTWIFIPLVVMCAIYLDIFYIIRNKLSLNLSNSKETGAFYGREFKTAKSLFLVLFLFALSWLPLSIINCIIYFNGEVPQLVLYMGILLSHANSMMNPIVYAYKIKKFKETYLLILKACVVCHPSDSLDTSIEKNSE

[14] = Cytotoxicity against human THLE-2 cells assessed as decrease in intracellular ATP levels incubated for 72 hrs by Cell Titer-Glo luminescence assay; type: toxicity, cell-based; conditions: read-out: TC50
[15] = Tmax in Cynomolgus monkey at 3 mg/kg, po upto 24 hrs by LC/MS/MS analysis; type: ADME, organism-based, Macaca fascicularis; conditions: in vivo
[16] = target: T3, Very long chain fatty acid elongase 7 (Homo sapiens) (UniProt A1L3X0); test: Inhibition of ELOVL-7 in human HEK2936E cells assessed as increase in C20:0 lipo phosphatidyl choline synthesis at 100 nM in presence of 13C-labeled acetate measured after 48 hrs; type: cell-based
T3 sequence (whole entry): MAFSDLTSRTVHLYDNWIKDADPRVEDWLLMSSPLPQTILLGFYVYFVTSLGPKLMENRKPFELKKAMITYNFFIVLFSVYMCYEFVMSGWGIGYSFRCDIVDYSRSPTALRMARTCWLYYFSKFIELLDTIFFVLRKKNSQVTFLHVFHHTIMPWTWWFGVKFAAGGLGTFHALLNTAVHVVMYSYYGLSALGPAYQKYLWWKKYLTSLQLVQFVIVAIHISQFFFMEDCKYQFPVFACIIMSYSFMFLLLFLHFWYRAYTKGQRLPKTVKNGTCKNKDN

[17] = target: T3, Very long chain fatty acid elongase 7 (Homo sapiens); test: Inhibition of ELOVL-7 in human HEK2936E cells assessed as reduction in C22:0 lysophosphatidyl choline synthesis at 100 nM in presence of 13C-labeled acetate measured after 48 hrs; type: cell-based
[18] = Efflux ratio of permeability across […] in dog MDCK-MDR1 transfected cells by LC-MS analysis; type: ADME, cell-based, Canis lupus familiaris
[19] = Reduction in C26:0 LPC level in Cynomolgus monkey plasma at 15 mg/kg, po qd for 13 weeks by LC-MS/MS analysis (reference value: 2.495 ng/ml); type: functional, Macaca fascicularis
[20] = Reduction in C26:0/C16:0 LPC level in wild-type Sprague-Dawley rat at 300 mg/kg, po qd treated for 7 days by LC-MS/MS analysis; type: functional; parameters: scale not given: the % may be the effect or the level left; conditions: time 7 day
[21] = Reduction in C26:0/C16:0 LPC level in wild-type Sprague-Dawley rat at 30 mg/kg, po qd treated for 7 days by LC-MS/MS analysis; type: functional; parameters: scale not given: the % may be the effect or the level left; conditions: time 7 day
[22] = Reduction in C26:0/C16:0 LPC level in ABCD1 knock out mouse CNS at 16 mg/kg, po qd measured after 6 months of dosing by LC-MS/SMS analysis; type: functional; parameters: scale not given: the % may be the effect or the level left; conditions: 4380 h
[23] = Volume of distribution at steady state in Sprague-Dawley rat at 1 mg/kg, iv upto 48 hrs by LC/MS/MS analysis; type: ADME, organism-based; conditions: in vivo, read-out: Vdss
[24] = Toxicity in Sprague-Dawley rat assessed as decrease in body weight at 5 to 50 mg/kg/day, po administered for 8 weeks; type: organism-based; conditions: in vivo, 1344 h, dose 5-50 mg/kg/day
Mus musculus [25] = test: Reduction in C26:0 LPC level in wild-type C57BL/6 mouse blood administered orally qd for 105 days by LC-MS/MS analysis; type: functional, tissue-based; conditions: route po, time 105.0 day, DDE = dose-dependent effect
[26] = Toxicity in Sprague-Dawley rat assessed as corneal opacities at 5 mg/kg/day, po administered for 8 weeks by macroscopic observation analysis; type: organism-based; conditions: in vivo, 1344 h

For O=C(Nc1ccn(-c2ccnc(F)c2)n1)C1(c2ccccc2F)CC1, the Activity [1] was “Toxic”, the inhibition [2] was greater than 50% and the bioavailability [3] was 77%. The half-life [4] was 3.5 h, the Activity [5] was 50% and the Tmax [6] was 0.4 h. For the same compound, the Activity [7] was 57%, the Activity [8] was “Toxic” and the Activity (Mus musculus [9]) was “Active”. The Activity (Fibroblast) was “Dde”, the Activity [10] was 65% and the Activity [11] was “Non-Toxic”. For the same compound, the IC50 [12] was 900 nM, the inhibition [13] was greater than 50% and the CC50 at 72 h [14] was greater than 100000 nM. For the same compound, the Tmax [15] was 2.3 h, the inhibition [16] was “Active” and the inhibition [17] was “Active”. It also gave a Ratio [18] of 1.1, an Activity [19] of 0.4475 ng/mL and an Activity [20] of 85%. The Activity [21] was 67%, the Activity [22] was 55% and the Vd [23] was 4 L/kg. The Activity [24] was “Toxic”, the Activity (Mus musculus [25]) was “Dde” and the Activity [26] was “Toxic”.

From ChEMBL document CHEMBL5131397, “Discovery and Optimization of Pyrazole Amides as Inhibitors of ELOVL1” (J Med Chem, 2021)
